A short description of data set [1]: Carboxyfluorescein leakage assay, LUV from erythrocyte lipids. Type of data set: biochemical, human. To be noted: LPPO 0.8 mg/L, 60 μM phospholipid, 25°C. How it is done:
After evaporation of the solvent in vaccuo at 40°C, the phospholipids were dissolved in chloroform, filtered through glass fiber filters (Whatman) and concentrated under a stream of nitrogen. The lipid samples were stored at -80°C and used for liposome preparation. Vesicles to be used in the carboxyfluorescein (CF) leakage assay were prepared by mixing the appropriate amount of lipids (1 mg/ml) with chloroform/methanol 2:1 (v/v). The solvent was subsequently evaporated under a nitrogen gas stream obtaining a thin film on the walls of a glass tube. […] The release of vesicle contents after adding LPPO solutions was evaluated by the increased fluorescence intensity of CF released into the milieu which we express as the percentage of leakage. […] Maximum release of CF fluorescence (F max) was induced by lysing the vesicles with 0.1% (v/v) Triton X-100. Fluorescence intensity was monitored in time (excitation at 480 nm, emission at 515 nm) at 25°C using FluoroMax-3 (Jobin Yvon, Horriba) spectrofluorometer. The following equation was used to calculate the percent of CF leakage: % CF leakage = [(F–F 0)/(F max−F 0)] × 100, where F is the actual fluorescence intensity and F 0 is the fluorescence intensity before addition of the permeabilizing agent. […]

In the next data set the test system is Caco-2 monolayers. The data set can be described thus: Transepithelial transport in Caco-2 monolayers. The conditions noted are these: 3 h incubation. Type of data set: in vitro ADME. In general terms: Passage across Caco-2 layers is used to estimate intestinal permeability.
In data set [2] the test system is Streptococcus agalactiae. In words: MIC, standard microdilution method. The conditions noted are these: 24 h. (In general: In broth dilution the organism is exposed to a series of concentrations in liquid medium.)
The subject of data set [3] is Enterococcus faecium VanA 419/ana. In words: MIC, standard microdilution method. The conditions noted are these: VANA419/ANA, 24 h.
Data set [4] in a line: Critical micellar concentration (conductometry). The data set is classed as physicochemical. To be noted: 37°C. How it is done: Critical micellar concentration (CMC) values were measured (using conductometry method, COND 7, XS Laboratories instrument) and calculated according to literature procedure. LogD values were calculated using software package ACD Labs.
A short description of data set [5]: Stability at different pH (LC-MS). The data set is classed as physicochemical. The conditions noted are these: pH 0.18, 5.00 and 8.80; 50 μM and 500 μM; room temperature and 37°C; 24 hours. As for the experimental part:
Stability experiments were carried out at two concentrations and three pH values. Concentrations were 500 μmol/l (50 μl of 10 mM stock solution were dissolved in buffers of specific pH to a final volume of 1 ml) and 50 μmol/l (10 μl of stock solution were dissolved in buffers of specific pH to a final volume of 2 ml); pH: 0.18 (0.5 M HCl), 5 (0.1M NH4Ac adjusted with acetic acid), and 8.8 (0.1M NH4Ac adjusted with NaOH). The experiments were conducted at room temperature and 37°C, respectively. Samples were injected onto HPLC machine at different time points to assess the levels of decomposition. Time points: 0.5; 1; 3.5; 24 hrs. HPLC analytical parameters: Method: 0–100% B in 5 min, 100% C in 15 min, hold to 20 min. A = 25 mM NH4Ac, B = 25 mM NH4Ac in 50% MeCN, C = MeCN. Column: PFP, 100 x 4.6 mm, 3 um. Injection: 10 μl for 500 μM. Injection: 50 μl for 50 μM. Detection: PDA 210–400 nm; MS TIC 200–800 m/z.

Data set [6] has as its system Streptococcus agalactiae. In words: Induction of resistance by repeated passages, MIC after each step. The data set is classed as cell-based.
Setting [7] is: read-out: MIC after induction step, step 1.
[8] abbreviates: read-out: MIC after induction step, step 2.
The mark [9] stands for this setting: read-out: MIC after induction step, step 3.
The mark [10] stands for this setting: read-out: MIC after induction step, step 4.
The mark [11] stands for this setting: read-out: MIC after induction step, step 5.
[12] abbreviates: read-out: MIC after induction step, step 6.
Where [13] appears, read: read-out: MIC after induction step, step 7.
[14] abbreviates: read-out: MIC after induction step, step 8.
Where [15] appears, read: read-out: MIC after induction step, step 9.
[16] abbreviates: read-out: MIC after induction step, step 10.
Where [17] appears, read: read-out: MIC after induction step, step 11.
Setting [18] is: read-out: MIC after induction step, step 12.
Where [19] appears, read: read-out: MIC after induction step, step 13.
Where [20] appears, read: read-out: MIC after induction step, step 14.

≈ marks a conversion by molar mass, not a printed value. Where “and” joins values, the source holds several entries; their conditions need not be identical. Identical values can stand only once.

`CCCCCCCCCCCCCCCCOP(=O)(CCN1C[C@@H](O)[C@H](O)C1)OC[C@H]1O[C@@H](n2ccc(=O)[nH]c2=O)[C@H](O)[C@@H]1O` (stereo partly drawn) [DR5026]: in data set [1], the “CF release, % of the maximum (Triton X-100)” value is 8%. Further, the “compound in the Caco-2 cell lysate” value in the data set on Caco-2 monolayers is “No compound was detected”. Also, the “compound at the basolateral (acceptor) side” value in the data set with Caco-2 monolayers (apical to basolateral) is listed as “No compound was detected”. Further, the minimal inhibitory concentration (MIC) (in general, the lowest concentration found to suppress growth) with Streptococcus agalactiae [2] came out at 3.12 µg/mL (≈ 4.72 µM); in data set [3], 3.12 µg/mL (≈ 4.72 µM); with Streptococcus agalactiae [6] (setting [7]), 3.1 µg/mL (≈ 4.68 µM); in the data set on Streptococcus agalactiae [6] (setting [8]), 3.1 µg/mL (≈ 4.68 µM); in the data set with Streptococcus agalactiae [6] (setting [9]), 3.1 µg/mL (≈ 4.68 µM); in the data set with Streptococcus agalactiae [6] (setting [10]), 3.1 µg/mL (≈ 4.68 µM). Moreover, the MIC with Streptococcus agalactiae [6] (setting [11]) amounted to 3.1 µg/mL (≈ 4.68 µM); with Streptococcus agalactiae [6] (setting [12]), 3.1 µg/mL (≈ 4.68 µM); in the data set on Streptococcus agalactiae [6] (setting [13]), 6.2 µg/mL (≈ 9.37 µM); in the data set with Streptococcus agalactiae [6] (setting [14]), 6.2 µg/mL (≈ 9.37 µM); with Streptococcus agalactiae [6] (setting [15]) it was 3.1 µg/mL (≈ 4.68 µM); with Streptococcus agalactiae [6] (setting [16]) it was 3.1 µg/mL (≈ 4.68 µM). The MIC was 3.1 µg/mL (≈ 4.68 µM) with Streptococcus agalactiae [6] (setting [17]), 6.2 µg/mL (≈ 9.37 µM) with Streptococcus agalactiae [6] (setting [18]), 6.2 µg/mL (≈ 9.37 µM) in the data set with Streptococcus agalactiae [6] (setting [19]) and 6.2 µg/mL (≈ 9.37 µM) with Streptococcus agalactiae [6] (setting [20]). Also, the “CMC in H2O” value in data set [4] was 4 mM and 3 g/L. The “stability (decomposition by LC-MS)” value in data set [5] was “no detectable decomposition”.
For `CCCCCCCCCCCCCCCCOCCCOP(=O)(CCN1C[C@@H](O)[C@H](O)C1)OC[C@H]1O[C@@H](n2ccc(=O)[nH]c2=O)[C@H](O)[C@@H]1O` (stereo partly drawn) [DR5047], the “CF release, % of the maximum (Triton X-100)” value in data set [1] is given as 4%. Further, the MIC in the data set with Streptococcus agalactiae [2] was 6.25 µg/mL (≈ 8.68 µM); in data set [3], 6.25 µg/mL (≈ 8.68 µM); in the data set with Streptococcus agalactiae [6] (setting [7]), 6.2 µg/mL (≈ 8.61 µM); in the data set with Streptococcus agalactiae [6] (setting [8]) it was 6.2 µg/mL (≈ 8.61 µM); in the data set on Streptococcus agalactiae [6] (setting [9]), 6.2 µg/mL (≈ 8.61 µM); in the data set on Streptococcus agalactiae [6] (setting [10]), 6.2 µg/mL (≈ 8.61 µM). In addition, the MIC with Streptococcus agalactiae [6] (setting [11]) worked out at 6.2 µg/mL (≈ 8.61 µM); with Streptococcus agalactiae [6] (setting [12]) it was 6.2 µg/mL (≈ 8.61 µM); in the data set on Streptococcus agalactiae [6] (setting [13]), 3.1 µg/mL (≈ 4.31 µM); in the data set on Streptococcus agalactiae [6] (setting [14]), 6.2 µg/mL (≈ 8.61 µM); in the data set with Streptococcus agalactiae [6] (setting [15]), 6.2 µg/mL (≈ 8.61 µM); in the data set with Streptococcus agalactiae [6] (setting [16]), 6.2 µg/mL (≈ 8.61 µM). For the same compound, the minimal inhibitory concentration (MIC) with Streptococcus agalactiae [6] (setting [17]), in the data set on Streptococcus agalactiae [6] (setting [18]), in the data set on Streptococcus agalactiae [6] (setting [19]) and in the data set with Streptococcus agalactiae [6] (setting [20]) was 6.2 µg/mL (≈ 8.61 µM) throughout. For the same compound, in data set [4], the “CMC in H2O” value is 3 mM and 2 g/L.
